Data from PMC12833730, “Discovery of a First‐in‐Class Covalent Allosteric SHP1 Inhibitor with Immunotherapeutic Activity” (Angewandte Chemie (International Ed. in English), 2025).
Like-named read-outs stand apart in the source and are kept apart here.

Experiments:
[1] = molecular target: T1, SHP1 (Homo sapiens, UniProt P29350); assay: IC50 after 10-min/60-min preincubation, DiFMUP phosphatase assay; type: biochemical
T1 construct: SHP1, residues 245-543; made in house; host or cells: E. coli BL21(DE3)
Source text: The PTP‐catalyzed reaction involves a nucleophilic attack by the conserved active site Cys side chain on the phosphorus atom of phosphotyrosine in the substrate.^[ [53] ^] As such, the PTPs could serve as prime targets for covalent inhibition. Previously described activity‐based probes or covalent ligands for the PTPs are either phosphotyrosine isosteres or thiol‐reactive compounds that covalently modify the active site residues (including the catalytic Cys) and lack sufficient isozyme specificity.^[ [54], [55], [56], [57], [58], [59], [60], [61] ^] Inspired by the resurgence in covalent inhibitors for difficult drug targets, we set out to discover covalent SHP1 inhibitors by screening for electrophilic fragments that bind covalently to SHP1. This strategy is increasingly utilized to identify novel ligands for a target of interest.^[ [47], [62], [63] ^] We assembled a library of 4600 Cys reactive molecules from the Enamine covalent fragment collections containing 49.0% acrylamide, 38.1% chloroacetamide, 5.15% chloromethylketone, 5.20% activated nitrile, 2.10% epoxide, and 0.53% disulfide (Figure S1A). We carried out a high‐throughput biochemical fragment screening of this curated commercially available library against the SHP1 catalytic domain (residues 245–543). Each fragment (500 µM) was incubated with SHP1 (500 nM) for 30 min at room temperature before diluting the reaction 5.5‐fold with 24.45 mM para‐nitrophenyl phosphate (pNPP) to measure the residual PTP activity. This concentration of substrate was chosen to out‐compete any remaining fragment to reduce the inactivation of SHP1 during the enzymatic hydrolysis of pNPP. After a 2‐min incubation at 25 °C, the reaction was quenched by the addition of 5N NaOH, and the production of para‐nitrophenol was determined by absorbance at 405 nm. This assay format afforded a Z’‐factor of 0.70 (Figure S1B), indicating a robust screen to reliably identify hit molecules. To enhance the probability of discovering covalent ligands with inherent preference for SHP1, we also counter‐screened the same library against SHP2, the closest homolog of SHP1, and two other widely studied PTPs, PTP1B and PTPN22 (also called LYP). […] Among these, 31 were repurchased based on their observed preference for SHP1 and structural diversity, 11 of which were confirmed as potential covalent inhibitors for SHP1 based on the time dependency of their half‐maximal inhibition concentration (IC50) values determined with a 10‐min and 60‐min preincubation time, respectively (Table 1).
(§1) To further confirm the time-dependent inhibition and determine the IC50 of acquired hits, repurchased compounds from Enamine were serially diluted in a 96-well plate, followed by the addition of proteins at 200 nM. After 10-minute and 60-minute preincubation, 2 µL of the mixture was transferred into 100 µM 6,8-Difluoro-4-Methylumbelliferyl Phosphate (DiFMUP, Invitrogen, cat# D6567) at a final volume of 200 µL. The reaction was allowed to proceed for 5 minutes and quenched by the addition of 40 µl of a 160 µM solution of bpV(Phen) (Sigma-Aldrich, cat# SML0889). The fluorescence signal was measured using a CLARIOstar Plus Microplate Spectrophotometer (BMG Labtech) using excitation and emission wavelengths of 340 nm and 450 nm, respectively. Data were fitted using Prism GraphPad 10.1.1.

[2] = molecular target: T2, PTP1B (Homo sapiens, UniProt P18031); assay: IC50 after preincubation, DiFMUP phosphatase assay; type: biochemical
T2 construct: PTP1B, residues 1-321; made in house; host or cells: E. coli BL21(DE3)
Experimental: as §1

[3] = molecular target: T1, SHP1; assay: Time-course pNPP progress-curve inactivation kinetics; type: biochemical; settings: for k inact/K I for SHP1 inactivation: time-course pNPP assay
Source text: Covalent inhibitors generally inactivate their targets through a two‐step process, starting with a reversible binding event (characterized by the dissociation constant K I) and followed by covalent bond formation (represented by the first‐order rate constant of inactivation k inact). Although IC50 values are often utilized to assess the potency of covalent inhibitors, the second‐order rate constant k inact/K I is preferred because it provides a measure of covalent inhibition in a time‐ and dose‐independent manner.^[ [60], [62], [67], [68] ^] Because k inact/K I measurement can be time and labor‐intensive, we developed an efficient method to determine the observed first‐order rate constant (k obs) from the analysis of a progress curve in the presence of an inhibitor.^[ [69] ^] The k obs value is then plotted as a function of inhibitor concentration to obtain the kinetic parameters k inact, K I, and k inact/K I.^[ [70] ^] […] To verify SHP1 covalent modification by Z57117023, we ascertained SHP1 covalent adduct formation by intact protein liquid chromatography‐mass spectrometry (LC‐MS).^[ [58] ^] A single SHP1‐Z57117023 adduct was observed when SHP1 was incubated with Z57117023, with a mass shift of 295.21 Da (calculated 295.54 Da) (Figure 1e), consistent with the loss of a chlorine atom from Z57117023.
Phosphatase Activity Assay: To determine the inhibition kinetics of acquired hits, repurchased compounds from Enamine were serially diluted in a 96-well plate followed by the addition of pNPP at Km concentrations of corresponding proteins. The reaction was initiated by the addition of 20 nM proteins, and the reaction progression was monitored at OD405 using a CLARIOstar Plus Microplate Spectrophotometer (BMG Labtech) for 60 minutes. After background subtraction, the obtained progress curves were fitted to the equation A = v0(1-e^-kt)/k, where A is the absorbance at 405 nm, v0 is the initial rate, k is the kobs of the corresponding reaction. The acquired kobs was then plotted against inhibitor concentrations, which were fitted to kobs = kinact[I]/(KI+[I]), where kinact is the maximum rate of inactivation, [I] is the inhibitor concentration, and KI is the reversible binding affinity of the compound to the protein. Data were fitted using Prism GraphPad 10.1.1.

[4] = tested on: GSH; assay: Intrinsic reactivity toward GSH, LC-MS; type: physicochemical; settings: GSH in 3,3-dimethylglutarate (DMG) buffer, LC-MS
Experimental: (§2) The moderate half‐life in the presence of excessive GSH implied the low intrinsic reactivity of Z57117023. e) SHP1 protein was incubated with or without Z57117023 in 3,3‐dimethylglutarate buffer (pH = 7.0) for 60 min at room temperature to form a covalent adduct.
(§3) The area under the curve (AUC) of each measurement was normalized to 10 µM compounds to calculate the percent remaining. Data were fitted using Prism GraphPad 10.1.1.

[5] = Intrinsic reactivity toward GSH, LC-MS; type: physicochemical
Experimental: as §2, §3

[6] = pH 7, 100-fold excess GSH, pH 7.0, room temperature, read-out: half-life (t1/2) toward excess GSH (converted)

T1 sequence (P29350 245-543): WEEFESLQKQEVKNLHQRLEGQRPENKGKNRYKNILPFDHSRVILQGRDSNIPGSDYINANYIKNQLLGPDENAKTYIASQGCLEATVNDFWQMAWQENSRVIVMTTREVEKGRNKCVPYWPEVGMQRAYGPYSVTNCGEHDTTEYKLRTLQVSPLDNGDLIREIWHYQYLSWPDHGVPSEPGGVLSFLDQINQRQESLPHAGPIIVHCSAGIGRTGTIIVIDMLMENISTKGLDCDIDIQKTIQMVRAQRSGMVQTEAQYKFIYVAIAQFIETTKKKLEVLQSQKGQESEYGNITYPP
T2 sequence (P18031 1-321, species assumed): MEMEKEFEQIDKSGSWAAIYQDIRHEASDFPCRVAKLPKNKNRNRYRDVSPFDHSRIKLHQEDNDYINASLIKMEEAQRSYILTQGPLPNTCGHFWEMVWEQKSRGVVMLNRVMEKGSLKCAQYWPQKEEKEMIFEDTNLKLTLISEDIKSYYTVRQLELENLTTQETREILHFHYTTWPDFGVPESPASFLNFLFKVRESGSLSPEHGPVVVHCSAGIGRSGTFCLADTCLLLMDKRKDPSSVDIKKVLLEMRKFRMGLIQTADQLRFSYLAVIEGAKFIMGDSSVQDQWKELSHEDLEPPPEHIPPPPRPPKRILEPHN

SMILES | IC50 ([1]; 10-min preincubation, purchased hits, read-out: SHP1 IC50, 10 min) [µM] | IC50 ([1]; 60-min preincubation, purchased hits, read-out: SHP1 IC50, 60 min) [µM] | selectivity for SHP1 over SHP2, PTP1B, and PTPN22 ([1]; from IC50 values) [fold] | IC50 ([1]; resynthesized compound, 10 min preincubation, read-out: SHP1 IC50, 10 min preincubation) [µM] | IC50 ([1]; resynthesized compound, 60 min preincubation, read-out: SHP1 IC50, 60 min preincubation) [µM] | IC50 ([2]; column headed 60 min (c7), read-out: PTP1B IC50, 60 min) [µM] | k inact/K I for SHP1 inactivation [3] [M⁻¹ s⁻¹] | half-life at 10 µM ([4]; pH 7, 100-fold excess GSH, 3,3-dimethylglutarate buffer pH 7.0, room temperature, read-out: half-life with GSH) [h] | half-life at 10 µM [4, 6] [h] | reactivity toward GSH (in words) [5] | selectivity over a large panel of mammalian PTPs ([1]; 60-min preincubation IC50 values, incl. SHP2) [fold] | IC50 ([1]; 60-min preincubation, read-out: 60 min IC50, SHP1) [µM] | IC50 ([2]; 60-min preincubation, read-out: 60 min IC50, PTP1B) [µM] | k inact ([3]; pH 7.0, room temperature) [s⁻¹] | KI (inactivation) ([3]; pH 7.0, room temperature, read-out: K I) [µM] | k inact/K i fold higher than that of Z57117023 ([3]; vs Z57117023) [fold] | fold less reactive toward GSH than Z57117023 ([5]; vs Z57117023) [fold]
O=C(CCl)Nc1ccc(S(=O)(=O)Nc2nccs2)cc1 [Z57117023, 2-chloro-N-(4-(N-(thiazol-2-yl)sulfamoyl)phenyl)acetamide] | 99.1 | 17.5 | > 11 | 118 ± 8.3 | 25.2 ± 1.6 | > 200 | 3.792 | 7.07 ± 0.918 | ~7.1 | minimal reactivity toward GSH | – | – | – | – | – | – | –
N#Cc1ccsc1NS(=O)(=O)c1ccc(NC(=O)CCl)cc1 [M029, 2-Chloro-N-(4-(N-(3-cyanothiophen-2-yl)sulfamoyl)phenyl)acetamide] | – | – | – | – | – | – | 49.55 | – | 34.3 | – | > 22.4 | 2.6 ± 0.5 | 152 ± 16.6 | 0.0038 ± 0.008 | 76.7 ± 12.5 | 13 | 5
